# Data as given in US20120316105A1, “Polymyxin Derivates Useful As Antibacterial Agents” (priority 2011, published 2012).
# Read-outs that look alike come from different tables or passages of the source. Bridge positions count the residues as written; N and C are the ends. Square brackets hold non-standard residues; d marks the D form. Peptide text beside a SMILES is read from it. * marks the point of attachment. Isonicotinoyl(2-Ph) = O=C(c1ccnc(-c2ccccc2)c1)*; X3 = O=C(c1ccnc(-c2cccc(Cl)c2)c1)*; X1 = CC[C@H](C)CCCCC(=O)*; dDap = NC[C@@H](N)C(=O)O; Dab = NCC[C@H](N)C(=O)O; Dap = NC[C@H](N)C(=O)O
# What was measured:
# [1] = tested on: EC-1, mouse virulent strain of Escherichia coli; format: cell-based; settings: E. coli EC-1; overnight incubation, lower of duplicate values; trifluoroacetate salt (Example 1 and PMB sulfate)
# How it was run: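 Compounds were tested mostly as trifluoroacetate salts. Duplicate CLSI broth-dilution MICs were read visually after overnight incubation over 2-fold dilutions, with the lower of duplicates within 2-fold taken. QC organisms and reference drugs were included in each run.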
# [2] = tested on: Pseudomonas aeruginosa strain PA01; format: cell-based
# How it was run: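 CLSI broth dilution against P. aeruginosa PA01 with two-fold concentration steps and overnight incubation; MIC is lowest concentration visibly inhibiting growth versus drug-free control, in mg/L. Compounds tested as trifluoroacetate salts, in duplicate, lower value reported if within 2-fold; control organisms and reference compounds included.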
# [3] = tested on: AB-1649, polymyxin-resistant clinical isolate of Acinetobacter baumannii; format: cell-based
# How it was run: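 Broth dilution MIC per CLSI against the polymyxin-resistant A. baumannii isolate, 2-fold dilutions, overnight incubation, visual read of lowest concentration inhibiting growth. Run in duplicate, lower value reported when within 2-fold; MBC per CLSI M26-A guideline.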
# [4] = tested on: AB-3167, clinical isolate of Acinetobacter baumannii; format: cell-based
# How it was run: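 Broth dilution MIC per CLSI (M7-A8, M100-S20, M26-A for bactericidal), 2-fold dilution series, overnight incubation, visual read of lowest concentration inhibiting growth versus drug-free control. Duplicates run; lower value reported if within 2-fold, otherwise repeated. Compounds tested as trifluoroacetate salts; QC strains and reference compounds required in range.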
# [5] = tested on: PA-1646, polymyxin-resistant clinical isolate of Pseudomonas aeruginosa; format: cell-based
# How it was run: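 Broth dilution MIC per CLSI with 2-fold concentration steps, read visually after overnight incubation as lowest concentration inhibiting growth; duplicates within 2-fold, lower value reported, with QC strains and reference compounds. Compounds tested as trifluoroacetate salts, polymyxin B as sulfate.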
# [6] = Cytotoxicity assay (LDH release), hRPTEC; format: cell-based, human; settings: for CC50 at 24 h: human
# How it was run: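 hRPTEC grown 72 h in REGM, then exposed to compounds at 100, 67, 44, 30, 20 and 13 micromolar for 24 h at 37° C, 5% CO2. LDH released into supernatant measured; TC50 (micromolar) derived. Compounds tested as trifluoroacetate salts unless otherwise noted.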
# [7] = tested on: KP-5016, ESBL+ clinical isolate of Klebsiella pneumoniae (SHV-5); assay: Minimum inhibitory concentration (MIC, CLSI), KP-5016; format: cell-based; settings: K. pneumoniae KP-5016; overnight incubation, lower of duplicate values; trifluoroacetate salt (Example 1 and PMB sulfate)
# Method: (§1) Minimum bactericidal concentration (MBC, mg/L), minimum inhibitory concentration (MIC, mg/L), and human renal proximal tubule epithelial cell line cytotoxicity concentration 50% (hRPTEC, TC50, micromolar) for compounds of Formula I are listed in Table 2. The compounds of Formula I were tested as the corresponding trifluoroacetate salt except for Example 1 which was tested as the sulfate salt. For Table 2 below: PMB=polymyxin B as the sulfate salt (Bedford Laboratories, pharmaceutical grade); PMB1=polymyxin B1 as the trifluoroacetate salt; Nona=polymyxin B nonapeptide as the trifluoroacetate salt. PMB1 and Nona were prepared using the solid phase methodology described in the experimental section herein.
# (§2) The in vitro antibacterial activity of compounds of Formula I was evaluated by MIC testing according to Clinical and Laboratory Standards Institute (CLSI). See: Clinical and Laboratory Standards Institute. Methods for Dilution Antimicrobial Susceptibility Tests for Bacteria that Grow Aerobically; Approved Standard-Eighth Edition. CLSI document M7-A8 [ISBN 1-56238-689-1]. Clinical and Laboratory Standards Institute, 940 West Valley Road, Suite 1400, Wayne, Pa. 19087-1898 USA, 2006; also Clinical and Laboratory Standards Institute. Performance Standards for Antimicrobial Susceptibility Testing; Twentieth Informational Supplement. CLSI document M100-S20 [ISBN 1-56238-716-2]. Clinical and Laboratory Standards Institute. Methods for Determining Bactericidal Activity of Antimicrobial Agents; Approved Guideline. CLSI document M26-A (ISBN 1-56238-384-1). CLSI, 940 West Valley Road, Suite 1400, Wayne, Pa. 19087-1898 USA, 1999.
# (§3) The MIC determination is a standard laboratory method for evaluating the antibacterial activity of a compound. The MIC represents the lowest drug concentration that inhibits visible growth of bacteria following overnight incubation. […] Typically, the drug concentration range is broken down into 2-fold increments (e.g. 0.06 mg/L, 0.12 mg/L, 0.25 mg/L, 0.50 mg/L, 1.0 mg/L, etc.) and the various drug concentrations are all individually incubated overnight with approximately the same number of bacteria. The MIC is then determined by visually inspecting the drug effect at each concentration, and identifying the lowest drug concentration that has inhibited bacterial growth as compared to the drug free control. Typically, bacteria continue to grow at drug concentrations lower than the MIC and don't grow at concentrations at and above the MIC.
# (§4) The MIC values described in Table 2 below were derived from assays wherein each test compound was evaluated in duplicate. In cases where the duplicate values varied by 0-2-fold, the lower of the two values was reported below. Generally speaking, if the duplicate values varied by more than 2-fold, the assay was considered non-valid and was repeated until the variation between duplicate runs was ≦2-fold. In line with the CLSI guidelines referred to above, both control organisms and reference compounds were utilized in each MIC assay to provide proper quality control. MIC values generated with these control organisms and reference compounds were required to fall within a defined range for the assay to be considered valid and be included herein. Those skilled in the art will recognize that MIC values can and do vary from experiment to experiment. Generally speaking, it should be recognized that MIC values often vary +/−2-fold from experiment to experiment. While a single MIC is reported for each compound and each microorganism, the reader should not conclude that each compound was only tested once. Several of the compounds were subjected to multiple tests. The data reported in Table 2 is reflective of the compounds relative activity and different MICs may have been generated on these occasions in line with the guidelines described above.
# The following bacterial strains were used in these MIC determinations: […]
# [8] = tested on: KP-3700, ESBL+ clinical isolate of Klebsiella pneumoniae; assay: Minimum inhibitory concentration (MIC, CLSI), KP-3700; format: cell-based; settings: K. pneumoniae KP-3700; overnight incubation, lower of duplicate values; trifluoroacetate salt (Example 1 and PMB sulfate)
# Method: as §1, §2, §3, §4
# The following bacterial strains were used in these MIC determinations:
# KP-3700 is an ESBL+clinical isolate of Klebsiella pneumoniae obtained in 2006; and […]
# [9] = tested on: AB-1649, polymyxin-resistant clinical isolate of Acinetobacter baumannii; format: cell-based; remark: listed apart in the source
# How it was run: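 MIC and MBC were measured by CLSI broth dilution methods (M7-A8, M100-S20, M26-A) against a polymyxin-resistant clinical isolate and reported in mg/L. Compounds were tested as trifluoroacetate salts, with one exception tested as the sulfate.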
# [10] = tested on: PA-1646, polymyxin-resistant clinical isolate of Pseudomonas aeruginosa; format: cell-based; remark: listed apart in the source
# How it was run: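 Broth dilution MIC and bactericidal (MBC) testing per CLSI methods (M7-A8, M100-S20, M26-A) against polymyxin-resistant clinical P. aeruginosa isolate PA-1646. Compounds tested as trifluoroacetate salts, one as sulfate salt; values in mg/L.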
# [11] = AB-1649, polymyxin-resistant clinical isolate of
# [12] = PA-1646, polymyxin-resistant clinical isolate of
# [13] = A. baumannii AB-3167, overnight incubation, lower of duplicate values, trifluoroacetate salt (Example 1 and PMB sulfate)
Compound,EC-1 MIC [1] [µg/mL],PA01 MIC ([2]; strain) [µg/mL],"AB-1649 MIC [3, 11] [µg/mL]","AB-3167 MIC ([4]; AB-3167, clinical isolate of) [µg/mL]","PA-1646 MIC [5, 12] [µg/mL]",CC50 at 24 h [6] [µM],KP-5016 MIC [7] [µg/mL],KP-3700 MIC [8] [µg/mL],"AB-1649 MBC [9, 11] [µg/mL]","PA-1646 MBC [10, 12] [µg/mL]","AB-3167 MIC [4, 13] [µg/mL]",CC50 [6] [µM],"AB-1649 MBC ([9]; A. baumannii AB-1649, tested as trifluoroacetate salt (Example 1 and PMB as sulfate salt)) [µg/mL]","PA01 MIC ([2]; P. aeruginosa PA01, overnight incubation, lower of duplicate values, trifluoroacetate salt (Example 1 and PMB sulfate)) [µg/mL]","AB-1649 MIC ([3]; A. baumannii AB-1649, overnight incubation, lower of duplicate values, trifluoroacetate salt (Example 1 and PMB sulfate)) [µg/mL]","PA-1646 MIC ([5]; P. aeruginosa PA-1646, overnight incubation, lower of duplicate values, trifluoroacetate salt (Example 1 and PMB sulfate)) [µg/mL]","PA-1646 MBC ([10]; P. aeruginosa PA-1646, tested as trifluoroacetate salt (Example 1 and PMB as sulfate salt)) [µg/mL]","CC50 at 24 h ([6]; hRPTEC, 24 hours treatment, LDH release, Toxic Concentration 50%, read-out: hRPTEC TC50) [µM]"
CC(C)C[C@@H]1NC(=O)[C@@H](Cc2ccccc2)NC(=O)[C@H](CCN)NC(=O)[C@@H](NC(=O)[C@H](CN)NC(=O)[C@H](CO)NC(=O)[C@H](CCN)NC(=O)c2ccnc(-c3ccccc3)c2)CCNC(=O)[C@H]([C@@H](C)O)NC(=O)[C@H](CCN)NC(=O)[C@H](CCN)NC1=O [Example 46] ({Isonicotinoyl(2-Ph)}-[Dab]S[Dap][Dab][Dab][dF]L[Dab][Dab]T; lactam 4-C),0.25,0.5,4,1,64,98,64,0.5,–,–,–,–,–,–,–,–,–,–
CC(C)C[C@@H]1NC(=O)[C@@H](Cc2ccccc2)NC(=O)[C@H](CCN)NC(=O)[C@@H](NC(=O)[C@@H](CN)NC(=O)[C@@H](NC(=O)[C@H](CCN)NC(=O)c2ccnc(-c3ccccc3)c2)[C@@H](C)O)CCNC(=O)[C@H]([C@@H](C)O)NC(=O)[C@H](CCN)NC(=O)[C@H](CCN)NC1=O [Example 47] ({Isonicotinoyl(2-Ph)}-[Dab]T[dDap][Dab][Dab][dF]L[Dab][Dab]T; lactam 4-C),0.25,0.5,4,0.5,1,100,8,0.25,4,2,–,–,–,–,–,–,–,–
CC[C@H](C)[C@@H]1NC(=O)[C@@H](Cc2ccccc2)NC(=O)[C@H](CCN)NC(=O)[C@@H](NC(=O)[C@H](CN)NC(=O)[C@@H](NC(=O)[C@H](CCN)NC(=O)c2ccnc(-c3cccc(Cl)c3)c2)[C@@H](C)O)CCNC(=O)[C@H]([C@@H](C)O)NC(=O)[C@H](CCN)NC(=O)[C@H](CCN)NC1=O [Example 48] (X3-[Dab]T[Dap][Dab][Dab][dF]I[Dab][Dab]T; lactam 4-C),0.25,0.5,0.5,0.25,1,33,32,0.25,0.5,2,–,–,–,–,–,–,–,–
CC[C@H](C)[C@@H]1NC(=O)[C@@H](Cc2ccccc2)NC(=O)[C@H](CCN)NC(=O)[C@@H](NC(=O)[C@H](CN)NC(=O)[C@@H](NC(=O)[C@H](CCN)NC(=O)c2ccnc(-c3ccccc3)c2)[C@@H](C)O)CCNC(=O)[C@H]([C@@H](C)O)NC(=O)[C@H](CCN)NC(=O)[C@H](CCN)NC1=O [Example 49] ({Isonicotinoyl(2-Ph)}-[Dab]T[Dap][Dab][Dab][dF]I[Dab][Dab]T; lactam 4-C),0.125,0.5,0.25,–,4,> 100,16,0.25,0.25,8,0.125,–,–,–,–,–,–,–
"CC(C)C[C@@H]1NC(=O)[C@@H](Cc2ccccc2)NC(=O)[C@H](CCN)NC(=O)[C@@H](NC(=O)[C@H](CCN)NC(=O)[C@@H](N)[C@@H](C)O)CCNC(=O)[C@H]([C@@H](C)O)NC(=O)[C@H](CCN)NC(=O)[C@H](CCN)NC1=O [Nona, polymyxin B nonapeptide, reference compound] (H-T[Dab][Dab][Dab][dF]L[Dab][Dab]T; lactam 3-C (inferred))",>64,>64,>64,>64,>64,–,>64,>64,>64,>64,–,> 100,–,–,–,–,–,–
"CC[C@H](C)CCCCC(=O)N[C@@H](CCN)C(=O)N[C@H](C(=O)N[C@@H](CCN)C(=O)N[C@H]1CCNC(=O)[C@H]([C@@H](C)O)NC(=O)[C@H](CCN)NC(=O)[C@H](CCN)NC(=O)[C@H](CC(C)C)NC(=O)[C@@H](Cc2ccccc2)NC(=O)[C@H](CCN)NC1=O)[C@@H](C)O [PMB1, polymyxin B1, reference compound] (X1-[Dab]T[Dab][Dab][Dab][dF]L[Dab][Dab]T; lactam 4-C)",0.125,–,–,–,–,–,16,0.5,–,–,0.25,–,4,0.5,4,4,16,28
